According to patent publication US5994336A, “Method of inhibiting proliferation of cells by administering an aminosterol compound” (priority 1995, dated 1999):
“Also recorded” adds a separate entry of the source.

Key:
rabbit NHE3 = biological target: T1, rabbit NHE3 (Oryctolagus cuniculus, UniProt P26432); format: cell-based
T1 construct: BCECF internal pH recovery

human NHE1 = test: NHE1 inhibition, internal pH (BCECF-AM) in transfected PS120 fibroblasts; format: cell-based; conditions: 5 μg/ml; FIG. 2B
Method: (§1) PS120 fibroblasts transfected with rabbit or human NHE1 were grown as described above.

rabbit NHE1 = test: as above; format: cell-based; conditions: 5 μg/ml; FIG. 2A
Method: as §1

[1] = tested on: human epithelial cell line MCF 10A; test: Growth inhibition in vitro (absorbance at 600 nm); format: cell-based; conditions: 10 μg/ml; FIG. 3B
[2] = tested on: human foreskin fibroblasts; test: Growth inhibition in vitro (absorbance at 600 nm); format: cell-based; conditions: 10 μg/ml; FIG. 3C
[3] = tested on: human umbilical venous endothelial cells; test: LPS-induced neutrophil adherence; format: cell-based; conditions: squalamine 10 μg, 1.0 μg or 0.1 μg
Description: Methods 109, 1988, 175-184.

[4] = tested on: capillaries of the chorioallantoic membrane; test: Inhibition of capillary growth in chorioallantoic membrane (CAM) model; format: in vivo, chick
Description: The growing capillaries within the chorioallantoic membrane model (CAM model) have been used as a system in which to evaluate the effect of agents on their potential to inhibit new vessel growth. Neovascularization occurs most aggressively over the first week of embryonic development. Thereafter capillary growth is characterized by principally "elongation" rather than "de novo" formation.
In the standard assay, agents are applied locally to a region of the embryo over which neovascularization will occur. Agents are assessed by their ability to inhibit this process, as evaluated by visual examination about 7 days after application. […] The assay utilized is described in detail in Auerbach et al., Pharm. Ther. 51, 1991, 1-11.

vitelline capillaries = test: Chick embryo vitelline capillary regression assay; format: in vivo; design: key to vascular reactivity: +: Vascular reactivity; 0: No vascular reactivity; +/-: Equivocal reactivity; conditions: for vascular reactivity: 60 minutes
Method: Using the chick embryo vitelline capillaries assay, compounds were tested for their ability to induce capillary regression. Each compound was applied in 0.1 ml of 15% Ficol 400 and PBS onto the embryo, and vascular regression was assessed after 60 minutes.
The 3-day chick embryo consists of an embryonic disc from which numerous vessels emerge and return, forming a "FIG. 8"-shaped structure--the embryo in the center with vascular loops extending outward over both poles. […] Following a lag period of around 15 minutes, the constriction of continuity between capillary and secondary vessels, generally on the "venous" side, was observed. Continued pulsatile blood flow progressed, resulting in a "swelling" of the blind tube, followed by a pinching off of the remaining connection and formation of an enclosed vascular sac resembling a "blood island." This process progressed until only the largest vessels remained intact.

[5] = tested on: Xenopus tadpole, stage 59-60; test: Tadpole assay; format: in vivo, Xenopus laevis; conditions: 10 μg/ml; for pharmacological response in tadpole (words): stage 59-60
Description: For example, substances that destroy all of the animal's epithelium, both adult and embryonic, could be regarded as toxic.
The volume of liquid is sufficient for the animal to swim freely and drink from the solution. […] If the volume of liquid is not sufficient to permit oral intake, the effects that are observed would result from absorption through the surface epithelium.
In another embodiment of this assay, a solution of a compound in water can be injected directly into the abdomen of the animal using standard techniques.
After an amount of time, typically about 60 minutes, the occlusion of blood flow through capillaries in the tadpole's tail are observed under an inverted microscope at a magnification of roughly 100×.
In the assay, each of the steroids was dissolved in 100 ml of distilled water at a concentration of 10 μg/ml. Stage 59-60 Xenopus tadpoles were introduced and evaluated by light microscopy and gross observation 1 hour later.

B16 melanoma = test: Suppression of growth of B16 melanoma in C57B mice; format: in vivo, mouse
Method: The growth of B16 melanoma in C57B mice is dependent upon neovascularization.
Using the growth of B16 melanoma cells in C57B mice, a recognized model for the evaluation of inhibitors of angiogenesis on the growth of cancers, the effects of subcutaneous, intraperitoneal and oral administration of squalamine were evaluated.

human melanoma 1205Lu = test: Suppression of growth of human melanoma in RAG-1 mice; format: in vivo
Description: As apparent from FIG. 5, melanoma 1205Lu develops aggressively in RAG-1 mice after implantation.

B16 = test: Cytostatic activity against B16 in culture; format: cell-based, murine; conditions: except at very high concentrations
[6] = tested on: VX2 carcinoma-induced corneal neovascularization; test: Suppression of tumor-induced corneal neovascularization in rabbits; format: in vivo, rabbit; conditions: ELVAX 40 P pellet, day 21
Description: The implantation of VX2 carcinoma into the rabbit cornea results in the induction of new blood vessels within several days (Tamargo et al., Cancer Research 51, 1991, 672-675). It is believed that this carcinoma secretes growth factors that stimulate new blood-vessel growth. Thus, this model is indicative in vivo evidence of therapeutic utility in the treatment of pathological disorders of vascularization, including the metastatic spread of tumors, diabetic retinopathy, macular degeneration, and rheumatoid arthritis.
This experiment followed the published protocol--tumor was implanted adjacent to a polymer containing a concentration of the agent to be evaluated. The polymer releases the agent slowly in the immediate neighborhood of the tumor, providing sustained high local concentrations of the agent. In this experiment, squalamine introduced into a pellet of ELVAX 40 P (DuPont, Wilmington, Del.) inhibited new blood vessel formation by about 60% at days 7 and 14, and by about 25% at day 21.

[7] = tested on: PHA-stimulated human lymphocytes; test: Inhibition of mitogen (PHA)-stimulated growth of human T-cells; format: cell-based
Description: Results are tabulated below.

[8] = tested on: bacteria, fungi and protozoa; conditions: cited from earlier work
[9] = listed as Compound 1256 (Squalamine)

T1 sequence (P26432 30-832): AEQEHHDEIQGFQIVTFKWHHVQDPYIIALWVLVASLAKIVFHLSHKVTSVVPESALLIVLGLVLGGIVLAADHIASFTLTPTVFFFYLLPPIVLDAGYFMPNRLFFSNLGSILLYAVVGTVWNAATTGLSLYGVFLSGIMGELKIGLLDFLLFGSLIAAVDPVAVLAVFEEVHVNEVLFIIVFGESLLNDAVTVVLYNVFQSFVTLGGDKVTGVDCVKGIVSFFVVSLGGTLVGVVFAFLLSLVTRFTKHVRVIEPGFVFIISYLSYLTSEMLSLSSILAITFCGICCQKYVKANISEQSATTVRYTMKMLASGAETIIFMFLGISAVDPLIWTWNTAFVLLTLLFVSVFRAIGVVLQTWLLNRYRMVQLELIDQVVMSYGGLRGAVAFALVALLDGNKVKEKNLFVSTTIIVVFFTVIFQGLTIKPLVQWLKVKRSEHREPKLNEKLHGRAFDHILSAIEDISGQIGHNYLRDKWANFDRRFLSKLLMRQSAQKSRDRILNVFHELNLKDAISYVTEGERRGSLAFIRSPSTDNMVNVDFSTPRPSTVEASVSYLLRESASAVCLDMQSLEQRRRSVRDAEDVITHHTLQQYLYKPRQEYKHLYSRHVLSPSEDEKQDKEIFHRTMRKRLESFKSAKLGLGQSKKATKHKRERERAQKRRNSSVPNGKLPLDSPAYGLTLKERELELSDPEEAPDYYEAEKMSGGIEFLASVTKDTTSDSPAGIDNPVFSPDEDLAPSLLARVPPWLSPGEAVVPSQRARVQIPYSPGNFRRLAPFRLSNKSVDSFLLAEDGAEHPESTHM

With CC(C)[C@@H](CC[C@@H](C)[C@H]1CC[C@H]2[C@@H]3[C@H](O)C[C@H]4C[C@@H](NCCCNCCCCN)CC[C@]4(C)[C@H]3CC[C@]12C)OS(=O)(=O)O [squalamine] the “resting internal pH” value (rabbit NHE3; 5 μg/ml, cells not acid-preloaded, FIG. 1B) was “the resting pH of these cells was also inhibited”, the “inhibition of NHE3, effect on Km and Vmax” value (rabbit NHE3; squalamine 5 μg/ml, FIGS. 1A, 1B) was “inhibited NHE3 with respect to proton concentration at both Km and Vmax levels” and the “inactivation of exchanger compared with amiloride” value (rabbit NHE3; words) was “more profoundly inactivated by squalamine than by amiloride”. The “specificity NHE3 over NHE1” value (rabbit NHE3; words) was “specificity for NHE3 over NHE1”, the “inhibitory activity against human NHE1” value (human NHE1) was “no inhibitory activity” and the “inhibitory activity against rabbit NHE1” value (rabbit NHE1) was “no inhibitory activity”. The “growth of epithelial line” value [1] was “no effect”, the “growth of fibroblast line” value [2] was “no effect” and the “inhibition of neutrophil adherence” value [3] was “no inhibition”. The “inhibition of CAM vessel neovascularization” value ([4]; 3-day CAM, 0.65 μg) was “inhibition of CAM vessel neovascularization”, the vascular irritation ([4]; 3-day embryo, 20 and 40 μg (values marked *)) was “Some vascular irritation noted” and the “Percentage positive (positive/total)” value ([4]; 13-day embryo, 5.0 μg applied) was 0/26. The “inhibition of CAM capillary growth” value ([4]; 13-day old chick, ten times 0.65 μg) was “no inhibitory effect”, the “activity on vitelline capillaries” value (vitelline capillaries) was “especially active” and the vascular reactivity (vitelline capillaries; 0.001 μg applied) was 0. The vascular reactivity (vitelline capillaries; 0.01 μg applied) was “+”, the vascular reactivity (vitelline capillaries; 0.1 μg applied) was “+” and the vascular reactivity (vitelline capillaries; 1 μg applied) was “+”. The vascular reactivity (vitelline capillaries; 10 μg applied) was “+”, the “disruption of vitelline capillaries” value (vitelline capillaries; 3- to 5-day chick embryos) was “found to disrupt vitelline capillaries” and the “lag period before capillary constriction” value (vitelline capillaries; 3-day chick embryo) was “around 15 minutes”. For the same compound, the hemolysis (vitelline capillaries; chick embryo, microscopic observation) was “absence of hemolysis”, the “tissues or functions not affected in tadpole” value [5] was “unaltered blood flow through the fine capillaries of the hands and feet” and the “pharmacological response in tadpole (words)” value [5] was “blood flow through the capillaries of the tail shut down; also recorded: common vascular occlusive effect”. For the same compound, the “pharmacological response in tadpole (words)” value [5, 9] was “Vascular occlusion in fine capillaries of tail”, the “tissues or functions not affected in tadpole” value [5, 9] was “No effect on vascular flow through hands or feet” and the “body weight and hematologic parameters” value (B16 melanoma; B16-bearing mice) was “no significant depression”. For the same compound, the “suppression of tumor volume” value (B16 melanoma; intraperitoneal, FIGS. 4B, 4B-1) was “dose-dependent suppression of tumor volume”, the “suppression of tumor volume” value (B16 melanoma; oral, FIGS. 4C, 4C-1) was “dose-dependent suppression of tumor volume” and the “suppression of tumor volume” value (B16 melanoma; subcutaneous, FIGS. 4A, 4A-1) was “dose-dependent suppression of tumor volume”. For the same compound, the “suppression of tumor growth” value (human melanoma 1205Lu; 10, 20, 40 mg/kg/d, FIG. 5) was “clear suppression of tumor growth in a dose-dependent fashion”, the “reversibility after cessation of treatment” value (human melanoma 1205Lu; words) was “reversible” and the “cytostatic activity against B16 in culture” value (B16) was “minimal cytostatic activity”. The “inhibition of new blood vessel formation” value [6] was “about 25%”, the “inhibition of blast transformation” value [7] was “Some effect” and the “antibiotic spectrum” value [8] was “broad-spectrum antibiotic, killing bacteria, fungi and protozoa”.
